This is an account of results in patent US20220016115A1, “USP19 INHIBITORS FOR USE IN THERAPY” (ALMAC DISCOVERY LIMITED, priority 2018, published 2022).

The assay concerns the target T1, USP19 (Homo sapiens, UniProt O94966).
T1 sequence (O94966 1-1318): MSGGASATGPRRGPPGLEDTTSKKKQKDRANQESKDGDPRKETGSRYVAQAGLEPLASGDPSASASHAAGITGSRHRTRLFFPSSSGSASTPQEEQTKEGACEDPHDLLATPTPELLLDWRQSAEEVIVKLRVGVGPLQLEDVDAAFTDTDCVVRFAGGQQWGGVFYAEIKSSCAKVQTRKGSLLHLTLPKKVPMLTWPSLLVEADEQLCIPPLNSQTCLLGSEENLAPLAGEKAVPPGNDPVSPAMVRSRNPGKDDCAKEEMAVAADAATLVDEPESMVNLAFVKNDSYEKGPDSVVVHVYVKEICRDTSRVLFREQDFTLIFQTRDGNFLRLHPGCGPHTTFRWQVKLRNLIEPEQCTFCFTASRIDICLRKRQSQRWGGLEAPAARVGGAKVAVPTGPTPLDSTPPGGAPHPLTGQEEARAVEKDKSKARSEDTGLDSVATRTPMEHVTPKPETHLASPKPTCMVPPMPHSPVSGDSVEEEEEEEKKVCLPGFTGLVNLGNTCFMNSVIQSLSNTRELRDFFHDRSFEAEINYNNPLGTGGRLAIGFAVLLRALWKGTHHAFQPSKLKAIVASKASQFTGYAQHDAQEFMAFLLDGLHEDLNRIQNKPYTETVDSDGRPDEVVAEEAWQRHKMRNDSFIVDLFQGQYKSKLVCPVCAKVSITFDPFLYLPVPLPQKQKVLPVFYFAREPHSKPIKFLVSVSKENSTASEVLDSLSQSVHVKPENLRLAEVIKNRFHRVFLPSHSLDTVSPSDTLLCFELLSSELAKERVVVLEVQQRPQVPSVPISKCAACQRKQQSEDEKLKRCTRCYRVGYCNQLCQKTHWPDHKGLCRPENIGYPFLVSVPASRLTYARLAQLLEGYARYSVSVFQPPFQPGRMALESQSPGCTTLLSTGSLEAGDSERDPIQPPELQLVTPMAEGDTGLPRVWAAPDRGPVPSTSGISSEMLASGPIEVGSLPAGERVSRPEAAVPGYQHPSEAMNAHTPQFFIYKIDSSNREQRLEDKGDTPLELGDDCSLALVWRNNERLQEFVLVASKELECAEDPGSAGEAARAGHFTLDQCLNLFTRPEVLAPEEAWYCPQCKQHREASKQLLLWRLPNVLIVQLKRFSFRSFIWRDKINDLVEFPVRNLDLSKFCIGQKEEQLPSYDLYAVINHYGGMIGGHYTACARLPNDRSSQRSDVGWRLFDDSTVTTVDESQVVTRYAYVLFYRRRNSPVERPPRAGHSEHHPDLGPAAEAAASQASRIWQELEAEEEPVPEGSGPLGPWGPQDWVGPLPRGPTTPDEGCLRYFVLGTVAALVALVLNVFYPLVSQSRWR
Put plainly: USP19 fluorescence polarisation (FP) homogeneous assay. Type of assay: biochemical. Also on record: Full-length USP19 was purchased from Boston Biochem (E-576); purchased Boston Biochem E-576. The settings on record: Ubiquitin-Lys-TAMRA substrate, full-length USP19 2.5 nM, average of at least two duplicate experiments. How it is done:
Unless otherwise stated, all other reagents were purchased from Sigma. Enzymatic reactions were conducted in black flat bottom polystyrene 384-well plates (Nunc) and 30 μL total volume. […] Inhibitors were stored as 10 mM DMSO stocks in an inert environment (low humidity, dark, low oxygen, room temperature) using the Storage Pod System and serial dilutions were prepared in buffer just prior to the assay (from 200 μM to 2 μM, 8-18 data point curve). Following incubation at RT for 30 min, the enzymatic reactions were initiated by dispensing the Ub substrate (500 nM, 10 μL). FP was measured every 15 min over a period of 90 min (within the linear range of the assay) using a Synergy 4 plate reader (BioTek) exciting at 530 nm and measuring the amount of parallel and perpendicular light at 575 nm. The FP signal was subsequently normalised to the no compound control.

Consider “3-(((S)-10-Hydroxy-7-((2R,3R)-2-phenylpyrrolidine-3-carbonyl)-7-azaspiro[4.5]decan-10-yl)methyl)-6-phenylpyrimidin-4(3H)-one and 3-(((S)-10-Hydroxy-7-((2a3S)-2-phenylpyrrolidine-3-carbonyl)-7-azaspiro[4.5]decan-10-yl)methyl)-6-phenylpyrimidin-4(3H)-one [Example 260]”, for which the half-inhibitory concentration (IC50) was < 500 nM.

On to `CC(n1cnc(-c2ccccc2)cc1=O)C1(O)CCN(C(=O)C[C@@H](C)c2ccccc2)CC1` (mixture of isomers) [Example 47, 3-((R)-1-(4-Hydroxy-1-((R)-3-phenylbutanoyl)piperidin-4-yl)ethyl)-6-phenylpyrimidin-4(3H)-one and 3-((S)-1-(4-hydroxy-1-((R)-3-phenylbutanoyl)piperidin-4-yl)ethyl)-6-phenylpyrimidin-4(3H)-one], for which the IC50 lay in the range of 50000 to 250000 nM.

Take `C[C@H](CC1CCCCC1)C(=O)N1CCC(O)(Cn2cnc(-c3ccccc3)cc2=O)C(C)(C)C1` (mixture of isomers) [Example 50, 3-(((R)-1-((R)-3-Cyclohexyl-2-methylpropanoyl)-4-hydroxy-3,3-dimethylpiperidin-4-yl)methyl)-6-phenylpyrimidin-4(3H)-one and 3-(((S)-1-((R)-3-Cyclohexyl-2-methylpropanoyl)-4-hydroxy-3,3-dimethylpiperidin-4-yl)methyl)-6-phenylpyrimidin-4(3H)-one]: the IC50 is < 500 nM.

With `C[C@H](CC1CCCCC1)C(=O)N1CCC(O)(Cn2cnc(-c3ccccc3F)cc2=O)C2(CCC2)C1` (mixture of isomers) [Example 51, 3-(((R)-6-((R)-3-Cyclohexyl-2-methylpropanoyl)-9-hydroxy-6-azaspiro[3.5]nonan-9-yl)methyl)-6-(2-fluorophenyl)pyrimidin-4(3H)-one and 3-(((S)-6-((R)-3-Cyclohexyl-2-methylpropanoyl)-9-hydroxy-6-azaspiro[3.5]nonan-9-yl)methyl)-6-(2-fluorophenyl)pyrimidin-4(3H)-one], the half-maximal inhibitory concentration (IC50) lay in the range of 500 to 5000 nM.

`C[C@H](CC(=O)N1CCC(O)(Cn2cnc(-c3ccccc3)cc2=O)C(C)(C)C1)c1ccccc1` (mixture of isomers) [Example 53, 3-(((S)-4-Hydroxy-3,3-dimethyl-1-((R)-3-phenylbutanoyl)piperidin-4-yl)methyl)-6-phenylpyrimidin-4(3H)-one and 3-(((R)-4-hydroxy-3,3-dimethyl-1-((R)-3-phenylbutanoyl)piperidin-4-yl)methyl)-6-phenylpyrimidin-4(3H)-one]: the half-inhibitory concentration (IC50) lay in the range of 500 to 5000 nM.

Take `C[C@H](CC(=O)N1CCC(O)(Cn2cnc(-c3ccccc3)cc2=O)CC1(C)C)c1ccccc1` (mixture of isomers) [Example 61, 3-(((R)-4-Hydroxy-2,2-dimethyl-1-((R)-3-phenylbutanoyl)piperidin-4-yl)methyl)-6-phenylpyrimidin-4(3H)-one and 3-(((S)-4-Hydroxy-2,2-dimethyl-1-((R)-3-phenylbutanoyl)piperidin-4-yl)methyl)-6-phenylpyrimidin-4(3H)-one]: the half-inhibitory concentration (IC50) was 50000 to 250000 nM.

In the case of `CC(C)N(C)C(=O)c1cn(CC2(O)CCN(C(=O)[C@H](C)CC3CCCCC3)CC2(C)C)c(=O)cc1-c1ccccc1` (mixture of isomers) [Example 73, 1-(((R)-1-((R)-3-Cyclohexyl-2-methylpropanoyl)-4-hydroxy-3,3-dimethylpiperidin-4-yl)methyl)-N-isopropyl-N-methyl-6-oxo-4-phenyl-1,6-dihydropyridine-3-carboxamide and 1-(((S)-1-((R)-3-Cyclohexyl-2-methylpropanoyl)-4-hydroxy-3,3-dimethylpiperidin-4-yl)methyl)-N-isopropyl-N-methyl-6-oxo-4-phenyl-1,6-dihydropyridine-3-carboxamide], the IC50 is < 500 nM.

With `O=C([C@@H]1CNC[C@H]1c1ccccc1)N1CC[C@@](O)(Cn2cnc(-c3ccccc3)cc2=O)C2(CCCC2)C1` (mixture of isomers) [Example 259, 3-(((S)-10-Hydroxy-7-((3S,4R)-4-phenylpyrrolidine-3-carbonyl)-7-azaspiro[4.5]decan-10-yl)methyl)-6-phenylpyrimidin-4(3H)-one and 3-(((S)-10-Hydroxy-7-((3R,4S)-4-phenylpyrrolidine-3-carbonyl)-7-azaspiro[4.5]decan-10-yl)methyl)-6-phenylpyrimidin-4(3H)-one], the concentration for half-maximal inhibition (IC50) is < 500 nM.

For the compound `CC(CC1CCC1)C(=O)N1CCC(O)(Cn2cc(C(=O)N3CCCCC3)c(-c3ccccc3)cc2=O)CC1` (racemic) [Example 15, (R,S)-1-((3-Cyclobutyl-2-methylpropanoyl)-4-hydroxypiperidin-4-yl)methyl)-4-phenyl-5-(piperidine-1-carbonyl)pyridin-2(1H)-one], the half-inhibitory concentration (IC50) was 5000 to 50000 nM.

Turning to `CCC(n1cnc(-c2ccccc2)cc1=O)C1(O)CCN(C(=O)[C@H](C)CC2CCCCC2)CC1` (stereo partly drawn) [Example 43, 3-((S)-1-(1-((R)-3-Cyclohexyl-2-methylpropanoyl)-4-hydroxypipendin-4-yl)propyl)-6-phenylpyrimidin-4(3H)-one and 3-((R)-1-(1-((R)-3-cyclohexyl-2-methylpropanoyl)-4-hydroxypipendin-4-yl)propyl)-6-phenylpyrimidin-4(3H)-one], the IC50 was 5000 to 50000 nM.

For the compound `C[C@H](CC1CCCCC1)C(=O)N1CCC(O)(Cn2cnc(-c3ccccc3F)cc2=O)C2(CCCC2)C1` (stereo partly drawn) [Example 119, 3-((7-((R)-3-Cyclohexyl-2-methylpropanoyl)-10-hydroxy-7-azaspiro[4.5]decan-10-yl)methyl)-6-(2-fluorophenyl)pyrimidin-4(3H)-one], the 50% inhibitory concentration (IC50) is < 500 nM.

Take `CC(C)N(C)C(=O)c1cn(C[C@]2(O)CCN(C(=O)[C@H](C)CC3CCCCC3)CC2(C)C)c(=O)cc1-c1ccccc1` [Example 120, 1-(((S)-1-((R)-3-Cyclohexyl-2-methylpropanoyl)-4-hydroxy-3,3-dimethylpiperidin-4-yl)methyl)-N-isopropyl-N-methyl-6-oxo-4-phenyl-1,6-dihydropyridine-3-carboxamide]: the IC50 was < 500 nM.

Regarding `C[C@H](CC1CCCCC1)C(=O)N1CC[C@@](O)(Cn2cc(C(=O)N(C)C)c(-c3ccccc3)cc2=O)C(C)(C)C1` [Example 121, 1-(((S)-1-((R)-3-Cyclohexyl-2-methylpropanoyl)-4-hydroxy-3,3-dimethylpiperidin-4-yl)methyl)-N,N-dimethyl-6-oxo-4-phenyl-1,6-dihydropyridine-3-carboxamide], the IC50 was < 500 nM.

Consider `C[C@H](CC1CCCCC1)C(=O)N1CC[C@@](O)(Cn2cc(C(=O)N3CCCC3)c(-c3ccccc3)cc2=O)C(C)(C)C1` [Example 123, 1-(((S)-1-((R)-3-Cyclohexyl-2-methylpropanoyl)-4-hydroxy-3,3-dimethylpiperidin-4-yl)methyl)-4-phenyl-5-(pyrrolidine-1-carbonyl)pyridin-2(1H)-one], for which the half-inhibitory concentration (IC50) was < 500 nM.

`C[C@H](CC1CCCCC1)C(=O)N1CC[C@@](O)(Cn2cc(C(=O)N3CCNCC3)c(-c3ccccc3)cc2=O)C(C)(C)C1` [Example 124, 1-(((S)-1-((R)-3-Cyclohexyl-2-methylpropanoyl)-4-hydroxy-3,3-dimethylpiperidin-4-yl)methyl)-4-phenyl-5-(piperazine-1-carbonyl)pyridin-2(1H)-one]: the IC50 is < 500 nM.

`C[C@H](CC1CCCCC1)C(=O)N1CCC(O)(Cn2cnc(-c3ccsc3)cc2=O)C(C)(C)C1` (stereo partly shown) [Example 135]: the IC50 was < 500 nM.
